Where a name gives a salt, the structure may show the parent alone.
The compounds below were run on A549 cells (assay: Inhibition of OCR (XF Analyzer)). Conditions: Homo sapiens, A549, 24 h.
Type: cell-based
Source text: The electron transfer complex in mitochondria is composed of 5 complexes. The complex I accept electrons from NADH produced from glycolysis and TCA cycle and the electrons move to complex […] and the electron is finally transferred to O2 and water molecule is generated. During the electron transfer, proton gradient is generated and the chemical gradient is a driving source to synthesize ATP at complex V. The mitochondrial inhibition of complex I indirectly assessed by measuring the oxygen consumption rate (OCR) at complex IV. […] The solution outside of cells becomes acidic (lower pH) as lactate is transported to outside of cells. OCR and Extracellular acidification rate (ECAR) are determined by XF Analyzer (Seahorse Biosciences).
A549 cells were purchased from American Type Tissue Culture Collection ([…]) and cultured in RPMI 1640 supplied with 10% fetal bovine serum (FBS) and antibiotic-antimycotic (Lifetech, CA). A549 cells were separated with 0.5% Trypsin-EDTA and 3,000 cells were plated on 1 mg/ml poly-D-lysine (Sigma, P6407) coated XF 96 well […]. A549 cells were allowed to adhere to the wells for 24 hours under the condition of temperature, 37° C. and 5% CO2 The sensor cartridge of XF Analyzer was soaked in 200 Ad of Calibrant solution (Seahorse, MA) in a clear 96-well plate at 37° C. for 24 hours. The compounds of the present invention were diluted with RPMI 1640 without FBS, transferred to A549 cells on XF 96 well plate, and incubated further for 23 hours at 37° C. and 5% CO2. After incubation, the compound solution was exchanged with pre-warmed and pH adjusted (pH7.4) XF assay media (Seahorse) supplied with 15 mM D-glucose (Sigma), 15 mM sodium pyruvate (Lifetechnologies, CA) and 4 mM L-glutamine (Lifetechnologies, CA). The compounds of present invention were prepared in XF Assay media and added to the assay plate. The assay plate was equilibrated in XF Analyzer for 1 hour, and the reading were started by sensor cartridge. The cytotoxicity assay was followed using Cyquant (Lifetechnologies, CA) in order to calibrate the inhibition with cytotoxicity of compounds. The concentrations of the compounds were tested at […] and IC50 value was obtained from the inhibited values. That is, from OCR inhibition values at each concentration of the compound, IC50 was calculated according to Prism's dose response curve fitting.
In Table 1, the levels of OCR IC50 are evaluated by the following.

| IC50 [µM] | SMILES |
| --- | --- |
| < 2 | N=C(N)NC(=N)NCCc1ccc(I)c(Cl)c1 [Example 78, N-1-(3-chloro-4-iodo)phenethylbiguanide hydrochloride] |
| < 2 | N=C(N)NC(=N)NCCc1ccc(Cl)c(I)c1 [Example 74, N-1-(3-iodo-4-chloro)phenethylbiguanide hydrochloride] |
| < 2 | N=C(N)NC(=N)NCCc1ccc(Br)c(I)c1 [Example 75, N-1-(3-iodo-4-bromo)phenethylbiguanide hydrochloride] |
| > 5 | CN(CCc1ccc(F)cc1)C(=N)N [Example 174, 1-(4-fluorophenethyl)-1-methyl guanide hydrochloride] |
| > 5 | CC(C)c1ccc(CCNC(=N)NC(=N)N)cc1 [Example 14, N-1-(4-isopropyl)phenethylbiguanide hydrochloride] |
| > 5 | COc1ccc(CCCNC(=N)N)cc1 [Example 185, 1-(3-(4-methoxyphenyl)propyl)guanide hydrochloride] |
| 2 to 5 | N=C(N)NCCc1ccc(-c2ccccc2)cc1 [Example 195, 1-(4-phenylphenethyl)guanide hydrochloride] |
| 2 to 5 | N=C(N)NCCc1cccc2c1CCCC2 [Example 192, hydrochloride] |
| < 2 | N=C(N)NC(=N)NCc1ccc2c(c1)CCCC2 [Example 48, N-1-2-(5,6,7,8-tetrahydronaphthalen-2-yl)methanebiguanide hydrochloride] |
| > 5 | N=C(N)NC(=N)NCCCc1ccc(C2CC2)cc1 [Example 47, N-1-1-(3-(4-cyclopropylphenyl)propyl)biguanide hydrochloride] |
| 2 to 5 | N=C(N)NC(=N)NCc1ccc2ccccc2c1 [Example 45, hydrochloride] |
| > 5 | N=C(N)NCCc1ccc(CCc2ccccc2)cc1 [Example 187, 1-(4-phenethylphenethyl)guanide hydrochloride] |
| 2 to 5 | N=C(N)NCCCc1ccccc1 [Example 165, 1-(3-phenylpropyl)guanide hydrochloride] |
| 2 to 5 | N=C(N)NCCc1ccc(Cl)c(Cl)c1 [Example 140, 1-(3,4-dichlorophenethyl)guanide hydrochloride] |
| 2 to 5 | Cc1ccc(CCNC(=N)NC(=N)N)c(C)c1 [Example 16, N-1-(2,4-dimethyl)phenethylbiguanide hydrochloride] |
| 2 to 5 | Cc1ccc(CCNC(=N)N)cc1 [Example 138, 1-(4-methylphenethyl)guanide hydrochloride] |
| 2 to 5 | N=C(N)NCc1ccc(-c2ccccc2)cc1 [Example 200, N-(4-phenyl)benzyl guanide hydrochloride] |
| > 5 | Cc1cc(CNC(=N)N)ccc1Br [Example 207, 1-(4-bromo-3-methylbenzyl) guanide hydrochloride] |
| > 5 | C[C@H](CNC(=N)N)c1ccccc1 [Example 175, (S)-1-(2-phenylpropyl)guanide hydrochloride] |
| 2 to 5 | N=C(N)NC(=N)NCCc1ccc(Cl)cc1Cl [Example 4, N-1-(2,4-dichloro)phenethylbiguanide hydrochloride] |
| > 5 | N=C(N)NC(=N)NCCc1ccccc1F [Example 9, N-1-(2-fluoro)phenethylbiguanide hydrochloride] |

| IC50 [µM] | SMILES |
| --- | --- |
| 2 to 5 | N=C(N)NC(=N)NCCc1ccc(CCc2ccccc2)cc1 [Example 27, N-1-(4-phenethyl)phenethylbiguanide hydrochloride] |
| > 5 | CCCNC(=N)NC(=N)NCCc1ccc2c(c1)CCCC2 [Example 127, N-1-propyl-N-5-(2-(5,6,7,8-tetrahydronaphthalen-2-yl)ethyl) biguanide hydrochloride] |
| 2 to 5 | N=C(N)NC1Cc2ccccc2C1 [Example 137, 1-(2,3-dihydro-1H-inden-2-yl)guanide hydrochloride] |
| 2 to 5 | COc1cccc(CCNC(=N)NC(=N)N)c1 [Example 8, N-1-(3-methoxy)phenethylbiguanide hydrochloride] |
| 2 to 5 | N=C(N)NCCC1CC1 [Example 190, 1-(2-cyclopropylethyl)guanide hydrochloride] |
| < 2 | Cc1ccc(CCNC(=N)N)c(C)c1 [Example 155, 1-(2,4-dimethylphenethyl)guanide hydrochloride] |
| 2 to 5 | N=C(N)NC(=N)NCCc1ccc(Br)c(Cl)c1 [Example 73, N-1-(4-bromo-3-chloro)phenethylbiguanide hydrochloride] |
| < 2 | Cc1cc(CCNC(=N)N)ccc1Cl [Example 206, 1-(4-chloro-3-methylphenthyl)guanide hydrochloride] |
| > 5 | N=C(N)NCCc1cccc(F)c1 [Example 178, 1-(3-fluorophenethyl)guanide hydrochloride] |
| > 5 | N=C(N)NC(=N)NCc1ccc(Oc2ccccc2)cc1 [Example 56, N-1-(4-phenoxy)benzylbiguanide hydrochloride] |
| 2 to 5 | N=C(N)NCc1ccc(Oc2ccccc2)cc1 [Example 203, 1-(4-phenoxybenzyl) guanide hydrochloride] |
| > 5 | N=C(N)NC(=N)NCc1cccc2ccccc12 [Example 31, hydrochloride] |
| > 5 | N=C(N)NC(=N)NCCC1CCCCC1 [Example 32, N-1-2-cyclohexylethylbiguanide hydrochloride] |
| > 5 | CN(CCCc1ccccc1)C(=N)N [Example 188, 1-methyl-1-(3-phenylpropyl)guanide hydrochloride] |
| > 5 | Cc1ccc(CCNC(=N)NC(=N)N)cc1 [Example 10, N-1-(4-methyl)phenethylbiguanide hydrochloride] |
| > 5 | N=C(N)NCc1ccc(Br)cc1 [Example 184, 1-(4-bromobenzyl)guanide hydrochloride] |
| > 5 | Cc1ccc(CNC(=N)N)cc1 [Example 151, 1-(4-methylbenzyl)guanide hydrochloride] |
| 2 to 5 | N=C(N)NCc1ccc2ccccc2c1 [Example 198, 11-(naphthalen-2-ylmethyl)guanide hydrochloride] |
| > 5 | N=C(N)NC(=N)NCc1cccc(Cl)c1 [Example 41, N-1-(3-chloro)benzylbiguanide hydrochloride] |
| 2 to 5 | Cc1ccc(CNC(=N)NC(=N)N)cc1C [Example 28, N-1-(3,4-dimethyl)benzylbiguanide hydrochloride] |

What follows are compounds tested on SK-MEL-28 cells (assay: Cytotoxicity in low glucose condition (MTT)). Conditions: Homo sapiens, SK-MEL-28, 0.75 mM glucose, 72 hours, read-out: SK-MEL-28 0.75 mM glucose Cell viability (IC50 ia).
Type: cell-based
Source text: The inhibition of oxidative phosphorylation (OXPHOS) is not cytotoxic to cells in normal glucose condition, because it is postulated that normal cells have compensatory mechanism under energy stress conditions such as low glucose. However OXPHOS inhibitors show cytotoxic effect on cells in the glucose deprived condition (BirsoyK, 2014). The glucose deprived condition is observed in tumor microenvironment potentially due to poor angiogenesis. Therefore the OXPHOS inhibitors may show anti-cancer effect on cancer cells in low glucose condition that may depict tumor microenvironment.
The compounds of the present invention were evaluated their cytotoxicity in SK-MEL-28, melanoma with 0.75 mM glucose supplement. The cytotoxic effect is compared with the cytotoxicity caused by phenformin. The cytotoxicity in low glucose condition is correlated with inhibition of oxygen consumption in mitochondria.
SK-MEL-28 (HTB-72) is a melanoma cell line obtained from ATCC (MA) and cultured in RPMI 1640 media (Lifetechnologies, CA) with supplement of 10% FBS and antibiotic-antimycotic (Lifetechnologies, CA). RPMI 1640 (-Glucose) was used to prepare low glucose media and 0.75 mM glucose was supplied with D-(+)-glucose solution from Sigma. SK-MEL-28 cells were separated from culture plate using 0.5% trypsin-EDTA and 5,000 cells were plated in 96-well plate with low glucose media. After incubation at 37° C. for 24 hour, 5% CO2, the cells were treated with the compounds of present invention in FBS-free media for 72 hours. The cytotoxicity was measured by the MTT (AMRESCO, OH) assay. NADH-dependent cellular oxidoreductase reduces MTT to its insoluble […] with purple color. The enzyme depends on cell number or energy state of cells. 10 μl of 5 mg/ml MIT solution was added to each well of the assay plate and skip the well for blank. The plate was incubated at 37° C. and 5% CO2 for 2 hours. The MTT solution was removed from each well and 100 μl of DMSO was added. The plate was read by VICTOR X3 Multilabel Counter at the wavelength of 550 nm. In Table 2, the levels of IC50 are evaluated by the following criteria.

| SMILES | IC50 [µM] |
| --- | --- |
| N=C(N)NC(=N)NCCc1ccc(I)c(Cl)c1 [Example 78, N-1-(3-chloro-4-iodo)phenethylbiguanide hydrochloride] | < 5 |
| N=C(N)NC(=N)NCCc1ccc(Cl)c(I)c1 [Example 74, N-1-(3-iodo-4-chloro)phenethylbiguanide hydrochloride] | < 5 |
| N=C(N)NC(=N)NCCc1ccc(Br)c(I)c1 [Example 75, N-1-(3-iodo-4-bromo)phenethylbiguanide hydrochloride] | < 5 |
| N=C(N)NCCc1ccc(-c2ccccc2)cc1 [Example 195, 1-(4-phenylphenethyl)guanide hydrochloride] | < 5 |
| N=C(N)NC(=N)NCc1ccc2c(c1)CCCC2 [Example 48, N-1-2-(5,6,7,8-tetrahydronaphthalen-2-yl)methanebiguanide hydrochloride] | > 10 |
| C/N=C(\NC)NC(=N)NCCc1ccc(Cl)c(Cl)c1 [Example 132, N-1-methyl-N-2-methyl-N-5-(3,4-dichloro)phenethylbiguanide hydrochloride] | > 10 |
| CNC(=N)NC(=N)NCCc1ccccc1 [Example 124, N-1-methyl-N-5-phenethylbiguanide hydrochloride] | > 10 |
| CONC(=N)NC(=N)NCCc1ccc(Cl)c(Cl)c1 [Example 129, N-1-methoxy-N-5-(3,4-dichloro)phenethylbiguanide hydrochloride] | > 10 |

Source: US11465989B2, “Guanidine compounds and use thereof” (IMMUNOMET THERAPEUTICS INC., priority 2014, dated 2022)
